Experimental findings from PMC6985109, “Cellular apoptosis and necrosis as therapeutic targets for novel Eugenol Tosylate Congeners against Candida albicans” (Scientific Reports, 2020) are described below.

As usually defined, the MFC is the lowest tested concentration that kills the fungus rather than only halting it. As usually defined, the MIC is the least concentration at which growth counts as inhibited.

Molecules are shown by their SMILES. In brackets after ≈: the same amount, converted by molar mass.

The test system of one test is Candida albicans 4122. Put plainly: Broth microdilution antifungal susceptibility (MIC/MFC). The class given is cell-based. Conditions: strain 4122, FLC resistant. The procedure:
(§1) In this study, 10 clinical Candida albicans isolates, comprising of 5 fluconazole susceptible and 5 fluconazole resistant, were used. C. albicans SC5314 was also used as a control laboratory strain. Clinical strains used in this study were stored at −80 °C supplemented with 20% glycerol in the Department of Clinical Microbiology and Infectious Diseases, University of the Witwatersrand, Johannesburg and were previously collected under the ethical clearance number M000402, obtained from the Human Research Ethics Committee, University of the Witwatersrand. For experimental purpose each strain from glycerol stock was recovered on Sabouraud Dextrose (SDA) agar plates at 37 °C for 24 h.
(§2) Minimum Inhibitory Concentration (MIC) and Minimum Fungicidal Concentrations (MFC) of all newly synthesized eugenol-tosylate congeners (ETC-1–ETC-7) against C. albicans strains were determined by broth microdilution assay in accordance with the approved guidelines described by Clinical and Laboratory Standards Institute (CLSI) guidelines M27-A[38]. The test compounds were prepared in 1% DMSO to a stock concentration of 8192 µg/ml. Two-fold dilutions of test compounds (100 µL) were prepared in 96-well flat-bottom microtiter plates, inoculated with 100 µl of inoculum (1 × 10^6 cells/mL) and incubated at 37 °C for 24 hours. In every set of experiment, positive control (fluconazole), negative vehicle control (1% DMSO) and culture control (media and cells only) were included. MIC’s were determined visibly as the lowest concentration of the test compounds that inhibited growth of test organism. To determine MFC, each well without visible growth was sub-cultured onto agar plates. Concentration in the first well with no growth on plate was taken as MFC. […] The experiment was performed in triplicate to validate the results.
Background: Broth dilution looks for growth in wells or tubes with falling amounts of substance.

The test system of a further test is Candida albicans 4180. The description is as above. The class given is cell-based. Conditions: strain 4180, FLC susceptible. Here is the method:
as §1, §2

For the next test, the system named is Candida albicans 5112. The description is as above. The class given is cell-based. To be noted: strain 5112, FLC resistant. The procedure:
as §1, §2

For test [1], the system named is fluconazole susceptible and resistant C. albicans strains. The test is described as follows: Broth microdilution antifungal susceptibility, ranges over strains. In kind it is cell-based. To be noted: Candida albicans; over the tested C. albicans strains. Here is the method: as §1, §2
In test [2] the test system is C. albicans 4175, C. albicans 5112 and C. albicans SC5314. Put plainly: FITC annexin V/PI staining flow cytometry, ranges over three strains. The class given is cell-based, Candida albicans. To be noted: range over 0.5 × MIC, 1 × MIC, 2 × MIC and three strains. The procedure: (§3) To study the effect of test compounds on apoptotic markers protoplasts were prepared as described previously, with modifications. Briefly, mid-exponential phase cells were harvested and exposed to various concentrations of test compounds (0.5 × MIC, 1 × MIC and 2×MIC) for 3 h. The cells were then washed twice with protoplast buffer- I (1 M sorbitol, 50 mM tris base, 10 mM MgCl2 and 30 mM DTT) and incubated in the same buffer for 15 minutes at 25 °C, followed by centrifugation at 1500 rpm for 5 minutes. Supernatant was removed and cells were incubated with buffer- II (1 M sorbitol, 50 mM tris base, 10 mM MgCl2 and 1 mM DTT) supplemented with lyticase enzyme (≥1 µg/mL) used to digest the cell wall for 1 h at 25 °C. Buffer- II were removed by centrifugation and then cells were incubated with buffer- III (1 M sorbitol, 50 mM tris base and 10 mM MgCl2) for 20 minutes at room temperature. After the incubation cells were again centrifuged at 1500 rpm for 5 minutes and supernatant was discarded. Protoplasts then finally washed once with PBS and re-suspended in the same for further use. In each washing steps the volume of these protoplast buffers were 5 times to cell volume with pH 7.4.
This assay was used to identify early apoptosis by detecting movement of phosphatidylserine (PS) from the inner to the outer leaflet of plasma membrane. FITC annexin V Apoptosis Detection Kit I (BD Biosciences, CA, USA) was used according to the manufacturer’s instructions. Protoplasts of C. albicans cells treated with different concentrations of the test compounds, as mentioned in above section, were resuspended in 1X annexin V binding buffer ([…]) at a concentration of 1 × 10^6 cells per ml. To the 100 µl of this solution, 5 µl each of FITC annexin V and propidium iodide (PI) was added. Tubes were gently vortexed and incubated for 15 minutes at 25 °C in the dark. After incubation, 400 µl of 1X annexin V binding buffer was added to each tube and analyzed using the BD LSRFortessa Flow cytometer (Becton Dickinson, NJ, USA). The cell populations in four different quadrants of a quadrant dot plot were analyzed and interpreted as; Q1: necrosis (annexin V^−/PI^+), Q2: late apoptosis (annexin V^+/PI^+), Q3: early apoptosis (annexin V^+/PI^−) and Q4: viable cells (annexin V^−/PI^−), by using software FlowJo_V10.
In general terms: In flow cytometry, cells or beads pass a laser one at a time.

Test [3] relates to cytochrome c oxidase activity in C. albicans SC5314, C. albicans 4175 and C. albicans 5112. The test is described as follows: Cytochrome c oxidase activity in mitochondria of treated cells. To be noted: 3 h, range over three strains. In kind it is cell-based, Candida albicans. The procedure:
as §3
After the cells were exposed to different concentrations of test compounds as mentioned above, mitochondria of the cells were isolated using Yeast Mitochondria Isolation Kit- MITOISO3 (Sigma – Aldrich St. Louis, MO, U.S.A.). Cytochrome c oxidase assay kit (ScienCell, Cat. No. 8278, CA, USA) was used to detect the cytochrome c oxidase activity. In all procedures, kits were used according to the manufacturer’s instructions. Briefly, prepared spheroplasts were followed by homogenization to release the mitochondria. Homogenate was centrifuged in 1X storage buffer (1 ml) at 6,500 × g for 10 minutes at 2–8 °C. […] Protein concentration was determined by using TCA Lowry method. […] Immediately change in absorbance of cytochrome c was measured at 550 nm on a kinetic program (duration 30 seconds, interval 5 seconds) by using UV-1800 SHIMADZU spectrophotometer (Shimadzu Corporation, Japan).

Take `C=CCc1ccc(OS(=O)(=O)c2ccc(C(=O)O)cc2)c(OC)c1` [ETC-7, 4-{[2-methoxy-4-(prop-2-en-1-yl)phenoxy]sulfonyl}benzoic acid]: the MFC against Candida albicans 4122 is 16 µg/mL (≈ 45.9 µM); against Candida albicans 4180, 8 µg/mL (≈ 23 µM); against Candida albicans 5112, 16 µg/mL (≈ 45.9 µM); in test [1], 2 to 8 µg/mL (≈ 5.74 to 23 µM). The MIC was 8 µg/mL (≈ 23 µM) against Candida albicans 4122 (37 °C, 24 h); 4 µg/mL (≈ 11.5 µM) against Candida albicans 4180 (37 °C, 24 h); 8 µg/mL (≈ 23 µM) against Candida albicans 5112 (37 °C, 24 h); 1 to 4 µg/mL (≈ 2.87 to 11.5 µM) in test [1]. Moreover, in test [2], the early apoptosis is on record as 8–32%. Further, in test [2], the late apoptosis is given as 2–26%. The necrosis in test [2] is 1–31%. In addition, the “cytochrome c oxidase enzyme activity decreased up to” value in test [3] (0.5 × MIC) is recorded as 11.33–18.07%; in test [3] (1 × MIC), 9.20–13.92%; in test [3] (2 × MIC), 5.21–9.88%.
